Several values for one entry are separate records, joined by “and”; a condition that tells them apart may be missing. Identical values can stand only once.
Tested on: Swiss mice, Sarcoma 180 sc, mean tumor weight T/C
Assay: NCI In Vivo Anticancer Drug Screen. Data for tumor model Sarcoma 180 (subcutaneous) in Swiss mice
Settings: endpoint: mean tumor weight, higher = larger tumour
Procedure: The antitumor activity of compounds was measured in mice bearing transplantable tumors. Survival or tumor size were measured and the results are expressed as the measurement made in the treated group (T) divided by the measurement made in the vehicle treated control group (C). The tumor model used in this assay is Sarcoma 180 (subcutaneous) in Swiss mice

In the case of `CC(=O)C1=C(O)C2(O)C(=O)c3c(c(C)c4ccc(C)c(O)c4c3O)CC2C(N)C1=O` (centres undefined), the T/C (dose: 18.8 mg/kg/injection, schedule: Q01DX007 (ip), vehicle: saline) is reported as 114 % of control, the T/C (dose: 37.5 mg/kg/injection, schedule: Q01DX007 (ip), vehicle: saline) is reported as 112 % of control and the T/C (dose: 75.0 mg/kg/injection, schedule: Q01DX007 (ip), vehicle: saline) is reported as 81 % of control. The T/C (dose: 150.0 mg/kg/injection, schedule: Q01DX007 (ip), vehicle: saline) was 104 % of control.
For `CC(=O)OC1(C)CC(C)C(=O)C(C(O)CC2CC(=O)NC(=O)C2)C1` (centres undefined), the T/C (dose: 1:40.0 dilution, schedule: Q01DX007 (ip), vehicle: water) was 122 % of control, the T/C (dose: 1:2000.0 dilution, schedule: Q01DX007 (ip), vehicle: water) was 79 % of control and 92 % of control and the T/C (dose: 1:4000.0 dilution, schedule: Q01DX007 (ip), vehicle: water) was 49 % of control.
In the case of `NC(=O)c1n[se]nc1N`, the T/C (dose: 1.0 mg/kg/injection, schedule: Q01DX007 (ip), vehicle: carboxymethylcellulose (CMC)) is reported as 65 % of control and the T/C (dose: 2.0 mg/kg/injection, schedule: Q01DX007 (ip), vehicle: carboxymethylcellulose (CMC)) is reported as 99 % of control.
In the case of `c1ccn(-c2nc(-n3cccc3)nc(-n3cccc3)n2)c1`, the T/C (dose: 31.25 mg/kg/injection, schedule: Q#A X014 (ip), vehicle: carboxymethylcellulose (CMC)) is reported as 47 % of control, the T/C (dose: 62.5 mg/kg/injection, schedule: Q#A X014 (ip), vehicle: carboxymethylcellulose (CMC)) is reported as 43 % of control and the T/C (dose: 125.0 mg/kg/injection, schedule: Q#A X014 (ip), vehicle: carboxymethylcellulose (CMC)) is reported as 46 % of control.
For `COc1ccc2[nH]c3c(C)c4ccncc4c(C)c3c2c1`, the T/C (dose: 6.2 mg/kg/injection, schedule: Q01DX007 (ip), vehicle: carboxymethylcellulose (CMC)) was 81 % of control, the T/C (dose: 12.5 mg/kg/injection, schedule: Q01DX007 (ip), vehicle: carboxymethylcellulose (CMC)) was 77 % of control and the T/C (dose: 25.0 mg/kg/injection, schedule: Q01DX007 (ip), vehicle: carboxymethylcellulose (CMC)) was 33 % of control. For the same compound, the T/C (dose: 27.0 mg/kg/injection, schedule: Q01DX007 (ip), vehicle: saline) was 72 % of control, the T/C (dose: 40.0 mg/kg/injection, schedule: Q01DX007 (ip), vehicle: saline) was 88 % of control and the T/C (dose: 50.0 mg/kg/injection, schedule: Q01DX007 (ip), vehicle: carboxymethylcellulose (CMC)) was 27 % of control. The T/C (dose: 50.0 mg/kg/injection, schedule: Q01DX007 (ip), vehicle: steriod suspending solution) was 97 % of control, the T/C (dose: 60.0 mg/kg/injection, schedule: Q01DX007 (ip), vehicle: saline) was 50 % of control and the T/C (dose: 75.0 mg/kg/injection, schedule: Q01DX007 (ip), vehicle: carboxymethylcellulose (CMC)) was 25 % of control. The T/C (dose: 75.0 mg/kg/injection, schedule: Q01DX007 (ip), vehicle: steriod suspending solution) was 46 % of control, the T/C (dose: 90.0 mg/kg/injection, schedule: Q01DX007 (ip), vehicle: saline) was 24 % of control and the T/C (dose: 150.0 mg/kg/injection, schedule: Q01DX007 (ip), vehicle: carboxymethylcellulose (CMC)) was 19 % of control. For the same compound, the T/C (dose: 150.0 mg/kg/injection, schedule: Q01DX007 (ip), vehicle: steriod suspending solution) was 31 % of control.
In the case of `CC(C)CCCCCCCCCCCCC(=O)NCC(=O)NC1C(O)C(O)C(Nc2ncnc3nc[nH]c23)OC1C(O)CO` (centres undefined), the T/C (dose: 0.3 mg/kg/injection, schedule: Q## X000 (ip), vehicle: carboxymethylcellulose (CMC)) is reported as 63 % of control, the T/C (dose: 0.44 mg/kg/injection, schedule: Q## X000 (ip), vehicle: carboxymethylcellulose (CMC)) is reported as 61 % of control and the T/C (dose: 0.6 mg/kg/injection, schedule: Q01DX007 (ip), vehicle: carboxymethylcellulose (CMC)) is reported as 58 % of control and 70 % of control. The T/C (dose: 0.66 mg/kg/injection, schedule: Q## X000 (ip), vehicle: carboxymethylcellulose (CMC)) was 53 % of control, the T/C (dose: 0.9 mg/kg/injection, schedule: Q01DX007 (ip), vehicle: carboxymethylcellulose (CMC)) was 36 % of control and 56 % of control and the T/C (dose: 1.0 mg/kg/injection, schedule: Q## X000 (ip), vehicle: carboxymethylcellulose (CMC)) was 36 % of control. For the same compound, the T/C (dose: 1.35 mg/kg/injection, schedule: Q01DX007 (ip), vehicle: carboxymethylcellulose (CMC)) was 82 % of control.
`OCC(F)(F)C(F)(F)C(F)(F)F` was tested, and the T/C (dose: 222.0 mg/kg/injection, schedule: Q01DX007 (ip), vehicle: other) was 56 % of control, the T/C (dose: 250.0 mg/kg/injection, schedule: Q01DX007 (ip), vehicle: saline) was 74 % of control and the T/C (dose: 333.0 mg/kg/injection, schedule: Q01DX007 (ip), vehicle: other) was 82 % of control. The T/C (dose: 500.0 mg/kg/injection, schedule: Q01DX007 (ip), vehicle: other) was 56 % of control and the T/C (dose: 750.0 mg/kg/injection, schedule: Q01DX007 (ip), vehicle: other) was 90 % of control.
With `O=[N+]([O-])c1ccc2c(N=Nc3c(O)ccc4ccccc34)c(O)cc(S(=O)(=O)O)c2c1` the T/C (dose: 65.0 mg/kg/injection, schedule: Q01DX007 (ip), vehicle: saline) was 70 % of control, the T/C (dose: 95.0 mg/kg/injection, schedule: Q01DX007 (ip), vehicle: saline) was 82 % of control and the T/C (dose: 145.0 mg/kg/injection, schedule: Q01DX007 (ip), vehicle: saline) was 66 % of control. For the same compound, the T/C (dose: 330.0 mg/kg/injection, schedule: Q01DX007 (ip), vehicle: saline) was 49 % of control.
`CCCCn1cnc2c(SSc3ncnc4c3ncn4CCCC)ncnc21` was tested, and the T/C (dose: 53.0 mg/kg/injection, schedule: Q01DX007 (ip), vehicle: carboxymethylcellulose (CMC)) was 82 % of control, the T/C (dose: 53.0 mg/kg/injection, schedule: Q01DX007 (ip), vehicle: other) was 62 % of control and the T/C (dose: 83.0 mg/kg/injection, schedule: Q01DX007 (ip), vehicle: other) was 65 % of control. The T/C (dose: 83.0 mg/kg/injection, schedule: Q01DX007 (ip), vehicle: saline) was 71 % of control, the T/C (dose: 125.0 mg/kg/injection, schedule: Q01DX007 (ip), vehicle: other) was 50 % of control and the T/C (dose: 125.0 mg/kg/injection, schedule: Q01DX007 (ip), vehicle: saline) was 37 % of control. The T/C (dose: 187.0 mg/kg/injection, schedule: Q01DX007 (ip), vehicle: other) was 30 % of control.
With `NC(=O)Oc1ccccc1` the T/C (dose: 220.0 mg/kg/injection, schedule: Q01DX007 (ip), vehicle: other) was 69 % of control, the T/C (dose: 330.0 mg/kg/injection, schedule: Q01DX007 (ip), vehicle: other) was 84 % of control and the T/C (dose: 492.0 mg/kg/injection, schedule: Q01DX007 (ip), vehicle: other) was 65 % of control.
With `Cc1ncc(CO)c(CNC(=O)N(C)N=O)c1O` the T/C (dose: 62.0 mg/kg/injection, schedule: Q01DX007 (ip), vehicle: carboxymethylcellulose (CMC)) was 60 % of control.
In the case of `Cn1cc(NC(=O)c2cc(NC(=O)c3cc(NC=O)cn3C)cn2C)cc1C(=O)NCCC(=N)N`, the T/C (dose: 20.0 mg/kg/injection, schedule: Q01DX007 (sc), vehicle: water) is reported as 80 % of control, the T/C (dose: 25.0 mg/kg/injection, schedule: Q01DX007 (sc), vehicle: water) is reported as 77 % of control and the T/C (dose: 40.0 mg/kg/injection, schedule: Q01DX007 (sc), vehicle: water) is reported as 92 % of control. The T/C (dose: 50.0 mg/kg/injection, schedule: Q01DX007 (sc), vehicle: water) was 64 % of control and the T/C (dose: 75.0 mg/kg/injection, schedule: Q01DX007 (sc), vehicle: water) was 71 % of control.
For `CC(C)C(=O)OCC1OC(n2cnc3c(=S)nc[nH]c32)C(OC(=O)C(C)C)C1OC(=O)C(C)C` (centres undefined), the T/C (dose: 17.0 mg/kg/injection, schedule: Q01DX007 (ip), vehicle: steriod suspending solution) was 80 % of control, the T/C (dose: 24.0 mg/kg/injection, schedule: Q01DX007 (ip), vehicle: carboxymethylcellulose (CMC)) was 76 % of control and the T/C (dose: 25.0 mg/kg/injection, schedule: Q01DX007 (ip), vehicle: steriod suspending solution) was 61 % of control. For the same compound, the T/C (dose: 37.0 mg/kg/injection, schedule: Q01DX007 (ip), vehicle: carboxymethylcellulose (CMC)) was 38 % of control, the T/C (dose: 37.0 mg/kg/injection, schedule: Q01DX007 (ip), vehicle: steriod suspending solution) was 66 % of control and the T/C (dose: 55.0 mg/kg/injection, schedule: Q01DX007 (ip), vehicle: carboxymethylcellulose (CMC)) was 31 % of control and 47 % of control. For the same compound, the T/C (dose: 55.0 mg/kg/injection, schedule: Q01DX007 (ip), vehicle: steriod suspending solution) was 27 % of control and 37 % of control, the T/C (dose: 84.0 mg/kg/injection, schedule: Q01DX007 (ip), vehicle: carboxymethylcellulose (CMC)) was 25 % of control and 31 % of control and the T/C (dose: 84.0 mg/kg/injection, schedule: Q01DX007 (ip), vehicle: steriod suspending solution) was 52 % of control. For the same compound, the T/C (dose: 125.0 mg/kg/injection, schedule: Q01DX007 (ip), vehicle: carboxymethylcellulose (CMC)) was 8 % of control, the T/C (dose: 125.0 mg/kg/injection, schedule: Q01DX007 (ip), vehicle: steriod suspending solution) was 26 % of control and the T/C (dose: 188.0 mg/kg/injection, schedule: Q01DX007 (ip), vehicle: steriod suspending solution) was 14 % of control and 17 % of control. The T/C (dose: 282.0 mg/kg/injection, schedule: Q01DX007 (ip), vehicle: steriod suspending solution) was 16 % of control and the T/C (dose: 423.0 mg/kg/injection, schedule: Q01DX007 (ip), vehicle: steriod suspending solution) was 16 % of control.
In the case of `C#C[C@]1(OC(C)=O)CC[C@H]2[C@@H]3CC[C@H]4CC=CC[C@]4(C)[C@H]3CC[C@@]21C`, the T/C (dose: 2.5 mg/kg/injection, schedule: Q01DX007 (sc), vehicle: steriod suspending solution) is reported as 84 % of control, the T/C (dose: 5.0 mg/kg/injection, schedule: Q01DX007 (sc), vehicle: steriod suspending solution) is reported as 71 % of control and the T/C (dose: 10.0 mg/kg/injection, schedule: Q01DX007 (sc), vehicle: steriod suspending solution) is reported as 102 % of control.

Reference: PubChem BioAssay AID342 (DTP/NCI, 2004)
